The target of the assay is T1, glyoxalase II (GLO2) (Mus musculus, UniProt Q99KB8).
T1 construct: gene Hagh
Description: LC-MS quantification of accumulated GLO2 substrate SLG in BMDMs treated with […] DiFMOC-G for […] h. In kind it is cell-based.

Results on one compound are retold here after article PMC11770101, “Nonenzymatic lysine D-lactylation induced by glyoxalase II substrate SLG dampens inflammatory immune responses” (Cell Research, 2025).

Turning to `O=C(O)CNC(=O)[C@H](CSC(=O)OCC1c2ccccc2-c2ccccc21)NC(=O)CC[C@H](NC(=O)OCC1c2ccccc2-c2ccccc21)C(=O)O` [DiFMOC-G], the “LC-MS quantification of accumulated GLO2 substrate SLG in BMDMs treated with 0.4” value is listed as “treatment with DiFMOC-G could dramatically induce SLG accumulation (Fig. 4e), recapitulating changes observed during macrophage activation”.
